Reference: patent publication US12410152B2, “Oxazole and thioazole-type cullin ring ubiquitin ligase compounds and uses thereof” (Proxygen GmbH, priority 2019, dated 2025)

Tested on: KBM7 WT cells (global proteome)
Assay: Quantitative expression proteomics (TMT isobaric tagging), drug vs DMSO
Assay type: cell-based, human
Excerpt: The mechanism by which the assayed molecules re-program a functional CRL4B complex based on the data shown could be that drug binding to CUL4B recruits a neo-substrate directly to the cullin backbone. Alternatively, drug binding could stabilize CUL4B function to boost time intervals where a functionally competent CUL4B complexes can be formed. Here, the word “functional” implies that the CUL4B backbone of this complex needs to be neddylated, and a CUL4B associated E2 ubiquitin-conjugating enzyme (UBE2G1) needs to be bound. FIG. 9 outlines one possible mechanism. Both predicted mechanisms of action would result in a functionally altered CRL4B complex, and thus an altered stability of drug-induced (neo-) substrates. In order to identify target proteins with a decreased abundance or, in other words, target proteins that become degraded by CRL4B after drug treatment, global proteome composition was measured using quantitative expression proteomics (TMT-labeling). In brief, KBM7 cells were drug treated for 12 hours, lysed, and subjected to isobaric tagging. Ensuing proteomics analysis quantified a total of 7,903 proteins at a minimum spectral count of 2. […] Data on essentiality are taken from Hart et al., G3, August 2017 (PMID: 28655737).
50×10^6 KBM7^WT cells per condition were collected, washed four times with ice-cold PBS, the supernatant aspirated and pellets snap-frozen in liquid N2. Each washed cell pellet was lysed separately in 40 μL of freshly prepared lysis buffer as previously described (see Mayor-Ruiz et al., Mol Cell 2019)
Offline Fractionation via RP-HPLC at high pH and 2D-RP/RP Liquid Chromatography Mass Spectrometry were performed as previously described (see Mayor-Ruiz et al., Mol Cell 2019).
Acquired raw data files were processed using the Proteome Discoverer 2.2.0 platform, utilizing the Sequest HT database search engine and Percolator validation software node (V3.04) to remove false positives with a false discovery rate (FDR) of 1% on peptide and protein level under strict conditions. Searches were performed with full tryptic digestion against the human SwissProt database v2017.06 with up to two allowed miscleavage sites. Oxidation (+15.9949 Da) of methionine was set as variable modification, whilst carbamidomethylation (+57.0214 Da) of cysteine residues and TMT 6-plex labelling of peptide N-termini and lysine residues were set as fixed modifications. Data was searched with mass tolerances of ±10 ppm and ±0.02 Da on the precursor and fragment ions, respectively. Results were filtered to include peptide spectrum matches (PSMs) with Sequest HT cross-correlation factor (Xcorr) scores of […] and high peptide confidence assigned by Percolator. MS^2 signal-to-noise values (S/N) values of TMT reporter ions were used to estimate peptide/protein abundance changes. PSMs with precursor isolation interference values of ≥ 50% and average TMT-reporter ion S/N≤10 were excluded from quantitation. Only unique peptides were used for TMT quantitation as well as for TOP3 label-free quantitation. Isotopic impurity correction and TMT channel-normalization based on total peptide amount were applied. For statistical analysis and p-value calculation, the integrated ANOVA hypothesis test was used. TMT ratios with p-values below 0.01 were considered as significant. Only proteins with >1 peptide detected and >1 unique peptide detected were considered for further analysis. For the calling of destabilized proteins, a log 2 fold change threshold (drug/DMSO) of −0.3 was applied.
Comparison of overall proteome-wide changes in KBM7 cells treated with IC020772.1 (2.5 μM), IC021313.2 (7 μM) or T6938051 (3.5 μM) for 5 h and 12h, using quantitative proteomics based on isobaric tagging.
The protein names in Table 4, Table 5 and Table 6 refer to the protein names as provided by HUGO Gene Nomenclature Committee (HGNC) database. […]

For `O=C(CSc1nc2ccccc2[nH]1)Nc1ccc(Cl)cn1` [IC021313.2], the “number of proteins significantly downregulated (log2FC < -0.3), destabilized proteins” value (KBM7 cells, 12 hours, ~10xEC50, 7,903 proteins quantified) was 839, the “number of downregulated proteins known to be implicated in KBM7 proliferation (essential for KBM7 viability)” value (KBM7 cells, 12 hours, essentiality from Hart et al. 2017) was 183 and the “logFC (IC021313.2/DMSO)” value (protein AKAP11 (Q9UKA4), essential: false) was −0.3004. For the same molecule, the “logFC (IC021313.2/DMSO)” value (protein ALKBH3 (Q96Q83-1), essential: false) was −0.3129, the “logFC (IC021313.2/DMSO)” value (protein ALKBH4 (Q9NXW9-1), essential: false) was −0.3111 and the “logFC (IC021313.2/DMSO)” value (protein ATXN7L3B (Q96GX2), essential: false) was −0.3111. For the same molecule, the “logFC (IC021313.2/DMSO)” value (protein BMT2 (Q1RMZ1), essential: false) was −0.3111, the “logFC (IC021313.2/DMSO)” value (protein C10orf88 (Q9H8K7), essential: false) was −0.3004 and the “logFC (IC021313.2/DMSO)” value (protein CCNC (P24863-1), essential: false) was −0.3129. For the same molecule, the “logFC (IC021313.2/DMSO)” value (protein CHMP4B (Q9H444), essential: true) was −0.3129, the “logFC (IC021313.2/DMSO)” value (protein CIT (O14578-4), essential: false) was −0.3147 and the “logFC (IC021313.2/DMSO)” value (protein CREB1 (P16220-1), essential: false) was −0.3147. The “logFC (IC021313.2/DMSO)” value (protein CUEDC2 (Q9H467), essential: false) was −0.3129, the “logFC (IC021313.2/DMSO)” value (protein DCUN1D4 (Q92564-3), essential: false) was −0.3004 and the “logFC (IC021313.2/DMSO)” value (protein DGCR14 (Q96DF8), essential: true) was −0.3129. For the same molecule, the “logFC (IC021313.2/DMSO)” value (protein DSG2 (Q14126), essential: false) was −0.3111, the “logFC (IC021313.2/DMSO)” value (protein EIF4B (P23588-1), essential: false) was −0.3129 and the “logFC (IC021313.2/DMSO)” value (protein ENTPD6 (O75354-1), essential: false) was −0.3004. For the same molecule, the “logFC (IC021313.2/DMSO)” value (protein EPN1 (Q9Y6I3-2), essential: false) was −0.3022, the “logFC (IC021313.2/DMSO)” value (protein FADS1 (O60427-1), essential: false) was −0.3147 and the “logFC (IC021313.2/DMSO)” value (protein FAM122A (Q96E09), essential: true) was −0.3022. The “logFC (IC021313.2/DMSO)” value (protein GTF2H1 (P32780-1), essential: true) was −0.3022, the “logFC (IC021313.2/DMSO)” value (protein GUCY1A3 (Q02108-1), essential: false) was −0.3129 and the “logFC (IC021313.2/DMSO)” value (protein KIF15 (Q9NS87-1), essential: false) was −0.3022. For the same molecule, the “logFC (IC021313.2/DMSO)” value (protein NCAPD2 (Q15021), essential: true) was −0.3094, the “logFC (IC021313.2/DMSO)” value (protein NDRG3 (Q9UGV2-1), essential: false) was −0.3111 and the “logFC (IC021313.2/DMSO)” value (protein NUFIP1 (Q9UHK0), essential: true) was −0.3129. The “logFC (IC021313.2/DMSO)” value (protein PFDN5 (Q99471-1), essential: false) was −0.3111, the “logFC (IC021313.2/DMSO)” value (protein PHF8 (Q9UPP1-1), essential: false) was −0.3022 and the “logFC (IC021313.2/DMSO)” value (protein PLSCR1 (O15162-1), essential: false) was −0.3111. The “logFC (IC021313.2/DMSO)” value (protein PO1A (Q8NBT0-1), essential: false) was −0.3022, the “logFC (IC021313.2/DMSO)” value (protein PPIL4 (Q8WUA2), essential: false) was −0.3004 and the “logFC (IC021313.2/DMSO)” value (protein PSD4 (Q8NDX1-1), essential: false) was −0.3022. For the same molecule, the “logFC (IC021313.2/DMSO)” value (protein PUS3 (Q9BZE2), essential: false) was −0.3022, the “logFC (IC021313.2/DMSO)” value (protein PVR (P15151-1), essential: false) was −0.3004 and the “logFC (IC021313.2/DMSO)” value (protein PYM1 (Q9BRP8-1), essential: false) was −0.3022. The “logFC (IC021313.2/DMSO)” value (protein RAD54L (Q92698), essential: false) was −0.3004, the “logFC (IC021313.2/DMSO)” value (protein RASSF5 (Q8WWW0-2), essential: false) was −0.3022 and the “logFC (IC021313.2/DMSO)” value (protein RPS17 (P08708), essential: true) was −0.3094. For the same molecule, the “logFC (IC021313.2/DMSO)” value (protein SKP2 (Q13309-1), essential: false) was −0.3111, the “logFC (IC021313.2/DMSO)” value (protein SLC10A4 (Q96EP9), essential: false) was −0.3111 and the “logFC (IC021313.2/DMSO)” value (protein SLCO4A1 (Q96BD0-1), essential: false) was −0.3004. The “logFC (IC021313.2/DMSO)” value (protein SUV39H1 (O43463-2), essential: false) was −0.3004, the “logFC (IC021313.2/DMSO)” value (protein TANC2 (Q9HCD6-2), essential: false) was −0.3129 and the “logFC (IC021313.2/DMSO)” value (protein TFAP4 (Q01664), essential: true) was −0.3094. For the same molecule, the “logFC (IC021313.2/DMSO)” value (protein USP12 (O75317), essential: false) was −0.3004, the “logFC (IC021313.2/DMSO)” value (protein WDR76 (Q9H967), essential: false) was −0.3004 and the “logFC (IC021313.2/DMSO)” value (protein ZNF770 (Q6IQ21), essential: false) was −0.3004. The “logFC (IC021313.2/DMSO)” value (protein ZWILCH (Q9H900-1), essential: false) was −0.3022.
